Reference: PMC9294993 (ACS chemical biology, 2022)

Target: KfoC (Escherichia coli, UniProt Q8L0V4)
Assay: preparative synthesis, HPLC
Type: biochemical
Details: acceptor elongated to CS 7-mer

Sequence of KfoC (Q8L0V4 whole entry): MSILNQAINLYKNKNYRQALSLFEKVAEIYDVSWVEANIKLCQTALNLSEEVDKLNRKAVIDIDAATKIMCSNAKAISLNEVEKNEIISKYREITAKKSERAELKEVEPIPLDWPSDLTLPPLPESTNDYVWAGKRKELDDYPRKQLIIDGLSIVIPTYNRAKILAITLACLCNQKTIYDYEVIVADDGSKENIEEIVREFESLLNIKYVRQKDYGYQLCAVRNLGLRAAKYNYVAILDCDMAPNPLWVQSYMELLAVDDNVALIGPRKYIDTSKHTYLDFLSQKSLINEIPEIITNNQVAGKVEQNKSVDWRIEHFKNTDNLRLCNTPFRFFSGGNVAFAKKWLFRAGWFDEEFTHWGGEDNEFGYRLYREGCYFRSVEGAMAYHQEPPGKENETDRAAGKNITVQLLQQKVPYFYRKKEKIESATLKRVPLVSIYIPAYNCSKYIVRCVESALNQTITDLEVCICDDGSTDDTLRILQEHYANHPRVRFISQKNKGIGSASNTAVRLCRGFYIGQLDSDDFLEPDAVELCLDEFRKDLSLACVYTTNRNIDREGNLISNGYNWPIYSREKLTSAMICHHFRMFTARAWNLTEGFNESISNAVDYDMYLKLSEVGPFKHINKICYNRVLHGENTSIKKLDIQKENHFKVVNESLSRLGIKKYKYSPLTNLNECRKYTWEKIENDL

With `O=C(O)[C@H]1O[C@@H](Oc2ccc([N+](=O)[O-])cc2)[C@H](O)[C@@H](O)[C@@H]1O` [4-nitrophenyl-β-D-glucuronide] the “preparative synthesis, HPLC” value was “GlcA-pNP was first elongated to heptasaccharide CS 7-mer by KfoC”.
